Data as given in patent US10993895B2, “Composition obtainable by passing singlet oxygen through extra virgin olive oil” (priority 2017, dated 2021).

Columns and labels:
[1] = tested on: Incised Wound Rattus Norvegicus; assay: Acute toxicity study on incised wound healing in rats; format: in vivo; set-up: Neo vascularization: key to the marks not given beside the values
Experimental: Research Protocol: Acute Toxicity Study on the Incised Wound healing Rattus Norvegicus In Vivo research on animals
(§1) 1. Preparation of animals:
1. Inject the animals with anesthesia drug containing ketamine hydrochloride, 0.1-0.2 ml as illustrated in 101 of FIG. 1.
2. Place them back into the cage while waiting them fully unconscious as the effect of the drug.
(§2) 3. Shave the back hair of the animals with razor blade.
4. Give antiseptics, i.e. povidone iodine and alcohol. Wait for three minutes as illustrated in 102 of FIG. 1.
5. Make a 2-cm long incision on the animal's back as illustrated in 103 of FIG. 1. Should any bleeding occurred, wipe with cotton.
6. Apply cotton bud ton the incision spot.
7. Cover the spot with gauze bandage and stick it with plaster as illustrated in 104 of FIG. 1.
8. Place the animal back in to the cage.
2. Fixation Tissue Protocol
The skin organs from treatment and control group are taken after the incision, then put them to the bottles containing fixation solution, and give labels. The intensions of the fixation are:
3. Tissue Processing Protocol/Paraffin Block
The tissue's processing is started after the fixation completed. The steps of this process are dehydration, clearing, and impregnation/embedding. […] Afterward, do the clearing by place the tissue into xylol. Then, do the impregnation/embedding by using paraffin. The detail of this process is as follows: After the fixation is completed, the tissues are placed into the following solution, consecutively. 1. Alcohol 70%: - 2. Alcohol 80% 1 hour 3. Alcohol 95%: 2 hour 4. Alcohol 95%: 1 hour 5. Alcohol 100%: 1 hour 6. Alcohol 100%: 1 hour 7. Alcohol 100%: 1 hour 8. Xylol: 1 hour 9. Xylol: 1 hour 10. Xylol: 2 hour 11. Paraffin (56-58° C.): 2 hour 12. Paraffin (56-58° C.) 2 hour 13. Paraffin (56-58° C.) 2 hour
4. Tissue Slicing and Attaching Process on object glass Protocol.
5. Hematoxilin Eosin Dyeing Protocol
The steps of HE dyeing method are:
This research use 24 Rats divided into 4 groups of treatment; they are Vaseline, Sibro, Gentamicin and Test. Composition. Each group has 6 rats.
2. […] After then stopped the bleeding, applied Vaseline, Sibro, Gentamicin and Test Composition to each group. Application of Vaseline (201), Sibro (202), Gentamicin (203) and Test Composition (204) are illustrated in FIG. 2.
There are 4 parameters in observing incised wound microscopically, they are Epithelization, Fibroplasia, Neovascularization, and scar.

[2] = tested on: MRSA 6; assay: Infected incised wound of rats, MRSA 6; format: in vivo, Rattus Norvegicus; details: wound infected with MRSA 6; 6 rats
Experimental: (§3) Effectivity Study on Infected Incised Wound of Rattus Norvegicus Experimental Research on Animal Testing
(§4) Method: Solution Preparation Protocol for Infected Incised Wound
(§5) Preparing the solution with these following steps:
(§6) 1. Bacteria from the infected patient clinical isolate is planted on the media by streaking at for quadrant
(§7) 2. The isolated bacteria in separated colonies are dissolved in the tube that contain pz liquid
(§8) 3. In order to analyze the cloudness level of the solution on the tube, nephelometer is used to figure the cloudness level to 0.50 McFarland.
(§9) 4. 0.5 McFarland is equal to 1.5×10^8 CFU bacteria.
(§10) Infected Incised Wound Preparation Protocol on Animals
as §1
(§11) 1. Inject the animals with anesthesia drug containing ketamine hydrochloride, 0.1-0.2 ml
(§12) 2. Place them back into the cage while waiting them to be fully unconscious as the effect of the drug.
as §2
(§13) 4. Give antiseptics, i.e. povidone iodine and alcohol. Wait for three minutes.
(§14) 5. Make a 2-cm long incision on the animal's back. Should any bleeding occurred, wipe with cotton.
(§15) 6. Swipe the incised spot with the bacteria solution using a cotton bud.
(§16) 7. Cover the spot with gauze bandage and stick it with plaster.
8. […]
(§17) The tissue's processing is started after the fixation completed. […] Remove from the oven and leave it in room temperature, then the tissue is ready to dye. […]

[3] = tested on: MRSA 10; assay: Infected incised wound of rats, MRSA 10; format: in vivo, Rattus Norvegicus; details: wound infected with MRSA 10; 6 rats
Experimental: as §3, §4, §5, §6, §7, §8, §9, §10, §1, §11, §12, §2, §13, §14, §15, §16
8. […]
as §17

[4] = incised wound, microscopic (HE), after 7 days

Row | Molecule | Wound condition on day −7 (macroscopic) ([1]; incised wound, macroscopic condition) | Epitheliazation [1, 4] | Fibroplasia [1, 4] | Neo vascularization [1, 4] | Scar [1, 4] | Dead Rats ([1]; substance applied on 2-cm incised wound, 6 rats per group, up to day 7) | Survival on day −7 ([1]; substance applied on 2-cm incised wound, survivors/6 rats) | Dead Rats [2] | Survival [2] | Dead Rats [3] | Survival [3]
1 | Gentamicin [Gentamisin] | Closing (with 1 granulation) | + | + | ++ | + | 0 | 6/6 | – | – | – | –
2 | C/C(=C\C(=O)OCCCCCCCCC(=O)O)C[C@@H]1OC[C@H](C[C@@H]2O[C@H]2[C@@H](C)[C@H](C)O)[C@@H](O)[C@H]1O [mupirocine, Mupirocin] | – | – | – | – | – | – | – | 0 | 6 | 0 | 6
